Assays:
Assay type in all cases: biochemical
[1] = biological target: T1, methionine gamma-lyase (MGL) (Brevibacterium aurantiacum, UniProt A0A2H1K3G9); test: DTNB (Ellman's reagent) trapping of volatile thiol, […] nm; settings: HBS, 3 h
T1 construct: gene BAUR9175_03070

SELENBP1 = biological target: T2, SELENBP1 (Homo sapiens, UniProt Q13228); test: coupled MGL assay, H2S (lead acetate paper) and H2O2 (fluorometric); settings: Cu cofactor, HBS pH 7.4, 37 °C, 3 h
T2 construct: Strep-tagged recombinant, E. coli BL21 or KRX, Strep-Tactin XT purified, 56 kDa
T2 sequence (Q13228 2-472): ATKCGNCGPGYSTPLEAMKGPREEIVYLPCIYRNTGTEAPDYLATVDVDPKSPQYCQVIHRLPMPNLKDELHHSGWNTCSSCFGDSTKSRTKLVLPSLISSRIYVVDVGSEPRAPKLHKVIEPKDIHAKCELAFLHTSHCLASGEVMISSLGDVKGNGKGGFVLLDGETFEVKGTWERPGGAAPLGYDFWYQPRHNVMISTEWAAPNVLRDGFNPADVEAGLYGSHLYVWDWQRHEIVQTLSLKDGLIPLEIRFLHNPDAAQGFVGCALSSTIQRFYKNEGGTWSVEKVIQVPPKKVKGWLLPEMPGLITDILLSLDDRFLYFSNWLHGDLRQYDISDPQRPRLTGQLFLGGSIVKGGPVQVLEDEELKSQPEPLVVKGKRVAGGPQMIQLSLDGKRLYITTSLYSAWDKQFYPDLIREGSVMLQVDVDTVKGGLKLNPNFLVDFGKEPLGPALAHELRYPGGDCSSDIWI

SEMO-1 = biological target: T3, SEMO-1 (Caenorhabditis elegans, UniProt Q9XXF9); test: as above; settings: Cu cofactor; methanethiol generated in situ from L-methionine; HBS pH 7.4; 37 °C, 3 h
T3 construct: Strep-tagged recombinant, E. coli BL21 or KRX, Strep-Tactin XT purified
T3 sequence (Q9XXF9 entry or part of it): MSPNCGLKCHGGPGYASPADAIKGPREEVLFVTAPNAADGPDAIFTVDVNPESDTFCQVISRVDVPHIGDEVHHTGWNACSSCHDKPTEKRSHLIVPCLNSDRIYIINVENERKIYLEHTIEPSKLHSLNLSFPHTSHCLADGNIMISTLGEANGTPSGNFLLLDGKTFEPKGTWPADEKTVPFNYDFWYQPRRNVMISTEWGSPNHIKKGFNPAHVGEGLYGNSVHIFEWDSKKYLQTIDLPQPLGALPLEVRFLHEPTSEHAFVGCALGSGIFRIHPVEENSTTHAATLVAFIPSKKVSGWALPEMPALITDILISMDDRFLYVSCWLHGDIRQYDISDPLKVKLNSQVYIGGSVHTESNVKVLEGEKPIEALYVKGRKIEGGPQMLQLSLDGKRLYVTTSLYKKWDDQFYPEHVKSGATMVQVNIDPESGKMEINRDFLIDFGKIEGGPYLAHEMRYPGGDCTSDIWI

T1 sequence (A0A2H1K3G9 14-406 limits assumed): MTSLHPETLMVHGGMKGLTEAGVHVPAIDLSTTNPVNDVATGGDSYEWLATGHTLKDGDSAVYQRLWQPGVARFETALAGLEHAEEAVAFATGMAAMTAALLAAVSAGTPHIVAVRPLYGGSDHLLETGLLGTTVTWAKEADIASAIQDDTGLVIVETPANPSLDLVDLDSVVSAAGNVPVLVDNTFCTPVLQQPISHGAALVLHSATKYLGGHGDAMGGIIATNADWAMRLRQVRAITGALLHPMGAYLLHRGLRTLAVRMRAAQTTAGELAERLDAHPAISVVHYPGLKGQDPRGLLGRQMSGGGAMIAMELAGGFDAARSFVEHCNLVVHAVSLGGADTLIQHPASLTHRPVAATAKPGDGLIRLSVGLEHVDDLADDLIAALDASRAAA

Compound: CSCC[C@H](N)C(=O)O [L-methionine]
- DTNB (Ellman's reagent) trapping of volatile thiol, 412 nm ([1]; product methanethiol): MGL-mediated generation of methanethiol from methionine served as positive control

Compound: N[C@@H](CCS)C(=O)O [L-homocysteine]
- DTNB (Ellman's reagent) trapping of volatile thiol, 412 nm ([1]; product H2S): ethanethiol, methaneselenol and H2S were generated by MGL-mediated elimination from their precursor amino acids

Compound: CCS [ethanethiol]
- coupled MGL assay, H2S (lead acetate paper) and H2O2 (fluorometric) (SELENBP1; ethanethiol generated in situ from DL-ethionine): methanethiol and ethanethiol are by far the best SELENBP1 substrates

Compound: CS [methanethiol]
- coupled MGL assay, H2S (lead acetate paper) and H2O2 (fluorometric) (SELENBP1; methanethiol generated in situ from L-methionine): methanethiol and ethanethiol are by far the best SELENBP1 substrates
- coupled MGL assay, H2S (lead acetate paper) and H2O2 (fluorometric) (SEMO-1): only the addition of cupric ions was capable of regenerating and even enhancing MTO activity

Source: publication PMC10362175, “Selenium-binding protein 1 (SELENBP1) is a copper-dependent thiol oxidase” (Redox Biology, 2023)
